According to patent EP0126012B1, “Pharmaceutical compositions containing symmetrical disulfides” (SANOFI S.A., priority 1983, dated 1984):

Tests used:
[1] = tested on: globules rouges des drépanocytaires; assay: Inhibition of sickling of human erythrocytes from sickle-cell patients under deoxygenation (Nomarski microscopy); format: cell-based, humains; conditions: inhibition de la falciformation des érythrocytes; incubation 1 h at 37°C, pH 7,40, with product; molar ratio produit/hémoglobine initially 0,5 to 20; ratio used for the table values not given
Procedure: L'inhibition de la falciformation des érythrocytes humains a été évaluée selon la méthode consistant à laver et incuber dans un tampon salin (pH 7,40 - 0,15 M), les globules rouges des drépanocytaires pendant une heure à 37°C dans un bainmarie sous agitation circulaire en présence du produit ci-dessus à différentes concentrations. Dans cette opération le rapport molaire produit/hémoglobine est testé initialement dans l'intervalle allant de 0,5 à 20. En fonction des résultats obtenus, ce rapport est modifié. A la fin de l'incubation, l'excès de produit est enlevé par lavage. La suspension cellulaire ajustée à un hématocrite de 5 % est transférée dans un Erlenmeyer et incubée à 37°C sous un courant d'un mélange humidifié d'azote et d'oxygène. La concentration d'oxygène est réglée par une pompe à mélange gazeux. Le gaz effluent est transféré dans un autre tube contenant du formaldéhyde. A la fin de l'incubation, la suspension cellulaire est transférée dans le formaldéhyde par simple retournement de la fiole.
La proportion des cellules déformées et de celles ayant les caractéristiques de drépanocytes (présentant deux prolongements filiformes) est évaluée à l'aide d'un microscope ayant une optique interférentielle de NOMARSKY. L'inhibition de la falciformation a été calculée selon la formule suivante: • % cellules falciformées - % cellules falciformées en témoins présence de la drogue % cellules falciformées du témoin

[2] = tested on: falciformation; conditions: literature (Inserm Symposium 1979); cited from earlier work

## c1c[nH]c(SSc2ncc[nH]2)n1 [2,2'-dithiodi(1H-imidazole)]
[1]
  % inhibition: 80%

## C1CSC(SSC2=NCCS2)=N1 [2,2'-dithiodi(4,5-dihydrothiazole)]
[1]
  % inhibition: 90%

## c1cnc(SSc2ncccn2)nc1 [2,2'-dithiodipyrimidine]
[1]
  % inhibition: 50%

## c1nc(SSc2nc[nH]n2)n[nH]1 [3,3'-dithiodi(1H-1,2,4-triazole)]
[1]
  % inhibition: 100%

## NCCSSCCN [cystamine, reference compound]
[2]
  inhibition de la falciformation: particulièrement active
[1]
  % inhibition: 33%

## NC(=O)CSSCC(N)=O [dithio-diacétamide]
[1]
  % inhibition: 80%

## CN(C)C(=O)CSSCC(=O)N(C)C [dithiodi(N,N-diméthyl)acétamide]
[1]
  % inhibition: 95%

## N=C(N)SSC(=N)N [dithiodiformamidine]
[1]
  % inhibition: 100%
